Reference: paper PMC6731595, “The anti-parasitic agent suramin and several of its analogues are inhibitors of the DNA binding protein Mcm10” (Open Biology, 2019)

Assays:
[1] = tested on: DNA replication of sperm chromatin in Xenopus egg extracts; test: In vitro DNA replication assay in Xenopus S-phase egg extracts ([α-32P]dGTP incorporation); assay type: biochemical; settings: 10, 50, 150 and 300 µM
Description: Xenopus egg extracts were prepared according to the method of Murray. Replication of sperm chromatin in S-phase egg extracts was monitored as previously described. Compounds identified by HTS were added to replication reactions immediately prior to addition of [α-^32P]dGTP (Perkin Elmer BLU514H250UC).
To determine whether the four remaining confirmed HTS hits affected DNA replication, in vitro replication assays were performed using Xenopus S-phase egg extracts incubated with sperm chromatin [25, 34]. DNA replication was measured in the presence of bronopol, fumarprotocetraric acid, iriginol and suramin or DMSO by the incorporation of [α-^32P]dGTP. […] For this reason, further studies focused on suramin alone.
Figure 1. Suramin inhibits DNA replication in an in vitro Xenopus replication assay. HTS hits were evaluated for inhibition of [α-^32P]dGTP incorporation into DNA using a cell-free extract prepared from Xenopus eggs at increasing concentrations (10, 50, 150 and 300 µM indicated by black triangle from right to left). No chemical (–) and DMSO were used as negative controls for replication inhibition (far left and far right lanes).

[2] = molecular target: T1, Xenopus internal domain Mcm10 (xMcm10-ID) (Xenopus laevis, UniProt Q5EAW4); test: Fluorescence polarization HTS and dose-response assay, 5′-6FAM probe binding to xMcm10-ID; settings: dose-response with repurchased or purchased compound
T1 construct: xMcm10-ID (amino acid residues 229 to 427); 6xHis (HRV 3C site) (N, cleaved yes); made in house; host or cells: E. coli BL21(DE3)
T1 sequence (Q5EAW4 229-427): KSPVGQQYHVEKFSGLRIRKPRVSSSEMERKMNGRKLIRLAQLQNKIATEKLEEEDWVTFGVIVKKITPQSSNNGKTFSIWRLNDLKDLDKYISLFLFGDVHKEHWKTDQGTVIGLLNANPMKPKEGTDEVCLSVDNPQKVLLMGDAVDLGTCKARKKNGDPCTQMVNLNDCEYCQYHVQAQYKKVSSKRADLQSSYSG
Description: A fluorescence polarization (FP) HTS assay was established to detect inhibitors of the binding of the 5′-6FAM 10-mer oligo probe to Mcm10. Test compounds dissolved in DMSO were added to 384-well plates (Corning 4514) using an Echo 550 acoustic dispenser (final DMSO 0.1%) to achieve a final single point screening concentration of 10 µM. Then 10 µl of 2× Xenopus internal domain Mcm10 (xMcm10-ID, final concentration 2 µM) in binding buffer (20 mM Tris HCl, 100 mM NaCl, 5% glycerol, and 0.01% triton, pH 7.5) was added using the Combi nL Multidrop dispenser. Finally, 10 µl of 2× 5′-6FAM DNA (final 12.5 nM) in binding buffer was added using the Multidrop. DMSO (0.1%, high signal) and probe only (low signal) controls were included on every plate. Plates were mixed for 2 min, incubated for 60 min at RT in the dark, and read on a CLARIOstar multimode plate reader (excitation: 482-16, emission: 530-40, dichroic filter: LP504).
The LOPAC pilot screen identified the sulfhydryl reagent 4-chloromercuribenzoic acid as an inhibitor in the fluorescence polarization (FP) assay. As there was no known Mcm10 inhibitor, 4-chloromercuribenzoic acid (30 μM) was used as a positive control on initial screening plates. Following the discovery of suramin as a Mcm10 inhibitor, suramin (7 μM) was used as a positive control on subsequent screening plates. To confirm activity, screening hits were tested in dose response experiments (8 concentrations in duplicate) using xMcm10-ID. Similar dose response experiments were conducted with suramin and its analogs to confirm activity for hMcm10-ID (1 μM) and xMcm10-FL (2 μM) and to determine selectivity relative to RPA70AB (0.4 μM). Saturation experiments for each protein were conducted using increasing concentrations of protein with a fixed probe concentration (12.5 nM). FP was measured in mP units, and ∆mP values for each well were calculated as the difference between the measured mP and the average of the “probe only” controls. […] The parallel and perpendicular mP values were also used to calculate total fluorescence intensity (TFI) determined by the sum of parallel mP + (2 x perpendicular mP). TFI was used to detect fluorescence interference by compounds [1]. […] IC50 values were calculated using the four parameter logistic equation in Prism 6.0 (GraphPad). Ki values were obtained using an online Ki calculator according to the equations of Nikolovska-Coleska (http://sw16.im.med.umich.edu/soft-ware/calc_ki/). KD values were calculated using the one site or two site binding equations in Prism 6.0 (GraphPad).

inhibition of 5′-6FAM probe binding to xMcm10-ID (result in words) [2]	SMILES	DNA replication, [α-32P]dGTP incorporation (result in words) [1]
active	O=[N+]([O-])C(Br)(CO)CO [bronopol]	only suramin exhibited a dose-dependent decrease in DNA replication
active	CC(=O)Oc1cc(-c2coc3cc(OC(C)=O)c(OC(C)=O)c(OC(C)=O)c3c2=O)cc(OC(C)=O)c1OC(C)=O [iriginol hexaacetate]	only suramin exhibited a dose-dependent decrease in DNA replication
